Experimental data reported in patent publication US6221386A (priority 1996, dated 2001).
Where two headings read alike, the source gives them in different places.

Key:
Assay type in all cases: in vivo, BALB/c mice
[1] = test system: Brucella melitensis 16M; conditions: 1 mg/mouse intramuscularly
[2] = test system: Brucella melitensis 16M; conditions: 1 mg ciprofloxacin/mouse intramuscularly, 5 × 10^4 CFU
[3] = test system: Brucella melitensis 16M; conditions: intramuscular; 1 mg antibiotic/mouse on days 7, 8 and 9; sacrificed day 12

Structure (SMILES)	B. melitensis 16M counts in spleens 7 days after infection ([1]; single dose 1 day after infection (title; head prints before))	B. melitensis 16M counts in spleens 7 days after infection ([1]; single dose 2 days after infection (title; head prints before))	B. melitensis 16M counts in spleens 7 days after infection ([1]; single dose 3 days after infection (title; head prints before))	B. melitensis 16M counts in spleens 7 days after infection ([1]; single dose 7 days after infection (title; head prints before))	B. melitensis 16M counts in spleens 7 days after infection ([2]; single dose 1 day before infection)	B. melitensis 16M counts in spleens 7 days after infection ([2]; single dose 2 days before infection)	B. melitensis 16M counts in spleens 7 days after infection ([2]; single dose 3 days before infection)	B. melitensis 16M counts in spleens 7 days after infection ([2]; single dose 7 days before infection)	Spleen counts after antibiotic was given [3]
O=C(O)c1cn(C2CC2)c2cc(N3CCNCC3)c(F)cc2c1=O [Ciprofloxacin, ciprofloxacin]	1.6 ± 0.3 × 10^4	13.0 ± 0.6 × 10^4	3.5 ± 0.9 × 10^4	3.9 ± 1.6 × 10^4	1.5 ± 0.3 × 10^4	2.8 ± 1.0 × 10^4	1.4 ± 0.2 × 10^4	1.9 ± 0.4 × 10^4	1.3 ± 0.4 × 10^4
CN(C)C1C(=O)C(C(N)=O)=C(O)C2(O)C(=O)C3=C(O)c4c(O)cccc4C(C)(O)C3CC12 (stereo not shown) [Tetracycline, tetracycline]									4.8 ± 0.8 × 10^3
